Results published in ChEMBL document CHEMBL5126659, “Antiasthmatic Compounds Targeting β2-Adrenergic Receptor from Perilla frutescens Improved Lung Inflammation by Inhibiting the NF-κB Signaling Pathway” (J Nat Prod, 2022).
Calls of active or inactive are those of the source.

Experiments:
Format in all cases: functional, organism-based
Rattus norvegicus [1] = assay: Anti-asthmatic activity against ovalbumin-induced asthmatic Sprague-Dawley rat model assessed as reduction in YM2 mRNA expression in lungs at 4.5 to 18 mg/kg, po for 7 days by qRT-PCR analysis; settings: dose 4.5-18 mg/kg, time 7.0 day
Rattus norvegicus [2] = assay: Anti-asthmatic activity against ovalbumin-induced asthmatic Sprague-Dawley rat model assessed as reduction in NFkappaB protein expression in lungs at 4.5 to 18 mg/kg, po for 7 days by western blot analysis; settings: dose 4.5-18 mg/kg, time 7.0 day
Rattus norvegicus [3] = assay: Anti-asthmatic activity against ovalbumin-induced asthmatic Sprague-Dawley rat model assessed as reduction in eotaxin level in BALF at 4.5 to 18 mg/kg, po for 7 days by ELISA; settings: dose 4.5-18 mg/kg, time 7.0 day
Rattus norvegicus [4] = assay: Anti-asthmatic activity against ovalbumin-induced asthmatic Sprague-Dawley rat model assessed as reduction in airway epithelial thickening in lungs at 4.5 to 18 mg/kg, po for 7 days by H and E staining based microscopic analysis; settings: dose 4.5-18 mg/kg, time 7.0 day
Rattus norvegicus [5] = assay: Anti-asthmatic activity against ovalbumin-induced asthmatic Sprague-Dawley rat model assessed as reduction in E-selectin mRNA expression in lungs at 4.5 to 18 mg/kg, po for 7 days by qRT-PCR analysis; settings: dose 4.5-18 mg/kg, time 7.0 day
Rattus norvegicus [6] = assay: Anti-asthmatic activity against ovalbumin-induced asthmatic Sprague-Dawley rat model assessed as reduction in AMCase mRNA expression in lungs at 4.5 to 18 mg/kg, po for 7 days by qRT-PCR analysis; settings: dose 4.5-18 mg/kg, time 7.0 day
Rattus norvegicus [7] = assay: Anti-asthmatic activity against ovalbumin-induced asthmatic Sprague-Dawley rat model assessed as reduction in OVA specific IgE level in BALF at 4.5 to 9 mg/kg, po for 7 days by ELISA; settings: dose 4.5-9 mg/kg, time 7.0 day, DDE = dose-dependent effect
Rattus norvegicus [8] = assay: Anti-asthmatic activity against ovalbumin-induced asthmatic Sprague-Dawley rat model assessed as reduction in CCR3 mRNA expression in lungs at 4.5 to 18 mg/kg, po for 7 days by qRT-PCR analysis; settings: dose 4.5-18 mg/kg, time 7.0 day
Rattus norvegicus [9] = assay: Anti-asthmatic activity against ovalbumin-induced asthmatic Sprague-Dawley rat model assessed as reduction in CCL11 mRNA expression in lungs at 4.5 to 18 mg/kg, po for 7 days by qRT-PCR analysis; settings: dose 4.5-18 mg/kg, time 7.0 day
Rattus norvegicus [10] = assay: Anti-asthmatic activity against ovalbumin-induced asthmatic Sprague-Dawley rat model assessed as reduction in OVA specific IgE level in serum at 4.5 to 9 mg/kg, po for 7 days by ELISA; settings: dose 4.5-9 mg/kg, time 7.0 day, DDE = dose-dependent effect
Rattus norvegicus [11] = assay: Anti-asthmatic activity against ovalbumin-induced asthmatic Sprague-Dawley rat model assessed as reduction in total IgE level in BALF at 4.5 to 18 mg/kg, po for 7 days by ELISA; settings: dose 4.5-18 mg/kg, time 7.0 day
Rattus norvegicus [12] = assay: Anti-asthmatic activity against ovalbumin-induced asthmatic Sprague-Dawley rat model assessed as reduction in NFkappaB protein expression in lungs at 4.5 to 18 mg/kg, po for 7 days by immunohistochemistry analysis; settings: dose 4.5-18 mg/kg, time 7.0 day
Rattus norvegicus [13] = assay: Anti-asthmatic activity against ovalbumin-induced asthmatic Sprague-Dawley rat model assessed as reduction in IL-13 cytokine level in BALF at 4.5 to 18 mg/kg, po for 7 days by ELISA; settings: dose 4.5-18 mg/kg, time 7.0 day
Rattus norvegicus [14] = assay: Anti-asthmatic activity against ovalbumin-induced asthmatic Sprague-Dawley rat model assessed as reduction in OVA specific IgE level in serum at 4.5 to 18 mg/kg, po for 7 days by ELISA; settings: dose 4.5-18 mg/kg, time 7.0 day
Rattus norvegicus [15] = assay: Anti-asthmatic activity against ovalbumin-induced asthmatic Sprague-Dawley rat model assessed as reduction in IL-4 cytokine level in BALF at 4.5 to 18 mg/kg, po for 7 days by ELISA; settings: dose 4.5-18 mg/kg, time 7.0 day
Rattus norvegicus [16] = assay: Anti-asthmatic activity against ovalbumin-induced asthmatic Sprague-Dawley rat model assessed as reduction in OVA specific IgE level in BALF at 4.5 to 18 mg/kg, po for 7 days by ELISA; settings: dose 4.5-18 mg/kg, time 7.0 day
Rattus norvegicus [17] = assay: Anti-asthmatic activity against ovalbumin-induced asthmatic Sprague-Dawley rat model assessed as reduction in inflammatory cell infiltration in lungs at 4.5 to 18 mg/kg, po for 7 days by H and E staining based microscopic analysis; settings: dose 4.5-18 mg/kg, time 7.0 day
Rattus norvegicus [18] = assay: Anti-asthmatic activity against ovalbumin-induced asthmatic Sprague-Dawley rat model assessed as reduction in total IgE level in serum at 4.5 to 18 mg/kg, po for 7 days by ELISA; settings: dose 4.5-18 mg/kg, time 7.0 day
Rattus norvegicus [19] = assay: Anti-asthmatic activity against ovalbumin-induced asthmatic Sprague-Dawley rat model assessed as reduction in IL-5 cytokine level in BALF at 4.5 to 18 mg/kg, po for 7 days by ELISA; settings: dose 4.5-18 mg/kg, time 7.0 day

Measured: Activity

O=C(/C=C/c1ccc(O)c(O)c1)O[C@H](Cc1ccc(O)c(O)c1)C(=O)O
active: Rattus norvegicus [1] | Rattus norvegicus [2] | Rattus norvegicus [3] | Rattus norvegicus [4] | Rattus norvegicus [5] | Rattus norvegicus [6] | Rattus norvegicus [7] Dde | Rattus norvegicus [8] | Rattus norvegicus [9] | Rattus norvegicus [10] Dde | Rattus norvegicus [11] | Rattus norvegicus [12] | Rattus norvegicus [13] | Rattus norvegicus [14] | Rattus norvegicus [15] | Rattus norvegicus [16] | Rattus norvegicus [17] | Rattus norvegicus [18] | Rattus norvegicus [19]
